Test system: anaerobic spores, such as C. tyrobutyricum
Experiment: Anaerobic spore count in raw milk under nitrogen gas
Format: cell-based
Conditions: 12.0° C., N1 environment (120 ml/min), Example 5, FIG. 5L
Protocol: With the device shown in FIG. 1, the effect of nitrogen gas on the natural microflora in raw milk (volume approximately 125 ml) was examined by replacing the air (control) in an open vessel (volume approximately 250 ml) at a constant temperature, with a flow-through of 100% nitrogen gas (purity 99.999%, manufacturer AGA) at two different flow-through rates: N1=120 ml/min, N2=40 ml/min.
The temperature of the raw milk in the sample bottles was adjusted by means of the thermostat (14) of the water bath to bring the temperature of the milk to 6.0° C., 7.0° C. or 12.0° C. The temperature variation in the vessel was less than ±0.1° C.
The effect of nitrogen gas on the growth of the microflora in a raw milk sample at 12.0° C. Two flow-through rates of the nitrogen gas were used in the study: (▴) 40 ml/min and ([…]) 120 ml/min. […] The following bacterial levels were determined in the samples:
FIG. 5A: Total bacteria count (p.m.y./ml) FIG. 5B: Total number of psychrotrophs (p.m.y./ml) FIG. 5C: Total number of proteolytic bacteria (p.m.y./ml) FIG. 5D: Total number of lipolytic bacteria (p.m.y./ml) FIG. 5E: Total number of bacteria producing phospholipase (p.m.y./ml). […]

Structure (SMILES): N#N [nitrogen gas]
- formation (sporulation) of anaerobic spores: does not increase the formation (sporulation)

Reference: patent US20100159093A1, “METHOD OF TREATING FOODSTUFF” (priority 2008, published 2010)
